Measurements reported in patent US12528774B2, “Thiosemicarbazone compounds and uses thereof” (The Regents of the University of California, priority 2019, dated 2026).

Tests used:
MIAPACA2 PDAC cells = assay: Intracellular copper measurement by ICP-MS; format: cell-based, human; details: HCT13 25 nM, 24 h, with and without 20 μM Cu(II)
Excerpt: (§1) FIG. 1A: IC50 values in a panel of human and mouse prostate cancer (PC)(cell lines CF-2, LNCaP, 22Rv1, RM-1, MyC CaP); small cell lung carcinoma (SCLC)(cell lines NCI-H1963, NCI-H146, NCI-H526); pancreatic ductal adenocarcinoma (PDAC)(CFPAC1, SW1990, HS766T, PANC0203, PANC0813, ASPC1, HPAFII, PATU8902, PANC0327, PANC1, YAPC, L36PL, XWR200, HUPT4, A13A, SUIT2, DAN-G, BxPC3, HPAC, PSN1, SU8686, KP4662, MIAPACA2, PATU8988T); and leukemia (cell lines KG-1, TF-1, Jurkat, MOLT-4, p185-R, MV4-11) models treated with HCT13+Cu(II) (20 μM) for 72 h measured by CellTiterGlo. […] (mean±SD, n=2, one-way ANOVA corrected for multiple comparisons by Bonferroni adjustment, * P<0.05; **P<0.01; ***P<0.001).
The MIAPACA2 cell line, a well-characterized PDAC model that was highly sensitive to HCT13 treatment, was used to further investigate the mechanism of action of our lead compound. MIAPACA2 proliferation was measured in response to HCT13 in the presence and absence of 20 μM CuCl2 (Cu(II)), as well as in response to 20 μM Cu(II) alone (FIG. 1B). […] To probe whether HCT13 was acting as an ionophore, intracellular copper levels were measured using inductively coupled plasma mass spectrometry (ICP-MS). […]
Intracellular Cu(II) measurement. […] The concentration of Cu(II) was measured using Inductive Coupled Plasma Mass Spectrometry (ICP-MS) using standard procedure.

MIAPACA2 cells = assay: Viability assay (trypan blue) in MIAPACA2 cells with co-treatments; format: cell-based
Excerpt: as §1
FIGS. 2A-2I. FIG. 2A: representative immunoblots of MIAPACA2 PDAC cells treated as indicated for 24h. FIGS. 2B-2C: reactive oxygen species (ROS) measurement using CM-H2DCFDA staining after HCT13 (25 nM)+Cu(II) (20 μM) treatment for 24h; mean fluorescence intensity (MFI); mean±SD, n=2, Student t-test, ***P<0.001. FIG. 2D-2E: mitochondrial ROS detection using MitoSOX staining in MIAPACA2 PDAC cells treated with HCT-13 (25 nM)+Cu(II) (20 μM) for 24h; mean±SD, n=2, Student t-test, ***P<0.001. FIG. 2F: oxygen consumption rate (OCR) of MIAPACA2 PDAC cells treated with HCT-13 (25 nM)+Cu(II) (20 μM). FIG. 2G: OCR of isolated mitochondria measured with or without HCT-13 (25 nM)+Cu(II) (20 μM). FIG. 2H: viability of 143 BTK parental (wild type, WT) and po cells after 48 h of treatment with the indicated HCT-13 concentrations+Cu(II) (20 μM) treatment, assessed with trypan blue staining; mean±SD, n=2, Student t-test, ***P<0.001. FIG. 2I: cell viability by trypan blue staining in MIAPACA2 PDAC cells to interrogate the interaction of HCT-13 (25 nM)+Cu(II) (20 μM) with 2-DG (2 mM) for 48 h; mean±SD, n=2, Student t-test, ***P<0.001.
FIG. 5A: rescue of HCT-13 (25 nM)-induced cell death by Uridine (rU) (200 μM), Pyruvate (1 mM), or both following 48h of treatment. FIG. 5B: measurement of DHODH activity using recombinant DHODH assay following treatment with indicated perturbations for 2 min. DHODH inhibitor used: NITD-982-1 μM; HCT-13-100 nM, 1 μM, (100 nM data shown); Cu(II)—20 μM. (mean±SD, n=2, Student t-test, * P<0.05).
Viability/Apoptosis assay: Viable cells were measured by Trypan blue staining using vi-cell counter (Beckman Coulter, CA, USA). Apoptosis and cell death were assayed using Annexin V-FITC and PI according to manufacturer's instructions (FITC Annexin V Apoptosis Detection Kit, BD Sciences, #556570).
Viability/Apoptosis assay. Viable cells were measured by Trypan blue staining using a Vi-Cell counter (Beckman Coulter, CA, USA). […]

SMILES: CN(C)C(=S)N/N=C/c1nccc2cc(F)ccc12 (mixture of isomers) [HCT13, (E)-2-((6-Fluoroisoquinolin-1-yl)methylene)-N,N-dimethylhydrazine-1-carbothioamide and (Z)-2-((6-Fluoroisoquinolin-1-yl)methylene)-N,N-dimethylhydrazine-1-carbothioamide]
- intracellular copper levels (MIAPACA2 PDAC cells): increased
- cytotoxicity in presence of bathocuproine disulfonate (BCPS) (MIAPACA2 cells; HCT13 25 nM + Cu(II) 20 μM, 24 h, BCPS 300 μM): abrogated
- activity with co-administration of 2-deoxyglucose (2-DG) (MIAPACA2 cells; HCT-13 25 nM + Cu(II) 20 μM, 2-DG 2 mM, 48 h): significantly potentiated
- cytotoxicity with pyruvate supplementation (MIAPACA2 cells; HCT-13 25 nM, pyruvate 1 mM, 48 h): not by pyruvate
- cytotoxicity with uridine (rU) supplementation (MIAPACA2 cells; HCT-13 25 nM, uridine 200 μM, 48 h): partially abolished
